Results published in patent US12649753B2, “Inositol derivative and use thereof” (SHANGHAI SENHUI MEDICINE CO., LTD., priority 2020, dated 2026).

Test: Spectrophotometric pharmacodynamics (PD) assay: inhibition of hydroxyapatite generation in human plasma
Type: biochemical
Details: human plasma (EDTA-K2), phosphate 1.5 mM and calcium 12.5 mM final, 25° C., slope of absorbance at 550 nm between 6 min and 24 min; read-out: IC50 (Mean ± SD)
Procedure: The inhibition effect of the test compounds on the generation of the human plasma hydroxyapatite (HAP) was determined by the spectrophotometric pharmacodynamics (PD) assay.
1.1 Preparation of Reagents • 1) Human plasma anticoagulated with EDTA-K2. • 2) Mixed solution: disodium hydrogen phosphate 5 mM, calcium chloride 41.67 mM, adjusted to pH 7.4 and filtered through a 0.22 μm filter. • 3) Sodium chloride solution: 0.15 M, adjusted to pH 7.4 and filtered through a 0.22 μm filter.
2.1 Test Procedures • 1) The test compounds were prepared using a 0.15 M sodium chloride solution. • 2) The human plasma sample was reprocessed. A sufficient amount of plasma was taken and centrifuged at room temperature at 10000 g for 30 min for later use. • 3) The plasma was added to a 96 well plate at 75 μL/well. • 4) The candidate drug was added at 5 μL/well. • 5) The mixed solution of disodium hydrogen phosphate and calcium chloride was added at […], with expected final concentrations of 1.5 mM and 12.5 mM, respectively. • 6) The plate was incubated at room temperature (25° C.) on a shaker (750 rpm), and the absorbance at a wavelength of 550 nm was measured every 3 min. • 7) The final reading was set as the slope of the change in absorbance between 6 min and 24 min.

## COCCOCCO[C@@H]1C(OP(=O)(O)O)[C@H](OCCOCCOC)[C@@H](OP(=O)(O)O)C(OP(=O)(O)O)[C@H]1OP(=O)(O)O (stereo partly shown) [INS 3001]
  IC50: 1.86 ± 0.142 µM
